Laboratory results published in US20260285850A1, “SUBSTITUTED OXAZOLIDINONES AND IMIDAZOLINONES AS HERBICIDES” (FMC CORPORATION, priority 2023, published 2026).

Experiments:
Format in all cases: in vivo
[1] = system: barnyardgrass (Echinochloa crus-galli); assay: Test A preemergence soil spray, visual injury rating 0-100; settings: 10 days
In short: (§1)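 Plants were grown in a loam soil-sand blend and treated with test chemical in a non-phytotoxic solvent mixture containing surfactant, either sprayed on soil preemergence or applied postemergence to 2-10 cm plants. After 10 days in a greenhouse, injury was scored visually against untreated controls, 0 meaning no effect and 100 complete control.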

[2] = system: blackgrass (Alopecurus myosuroides); assay: as above; settings: 10 days
In short: as §1

corn (Zea mays) [3] = assay: as above; settings: 10 days
In short: as §1

[4] = system: green foxtail (Setaria viridis); assay: as above; settings: 10 days
In short: as §1

kochia (Bassia scoparia) [5] = assay: as above; settings: 10 days, 0 = no effect, 100 = complete control
In short: as §1

[6] = system: oat, wild (wild oat, Avena fatua); assay: as above; settings: 10 days
In short: as §1

[7] = system: palmer (palmer amaranth, palmer pigweed, Amaranthus palmeri); assay: as above; settings: 10 days
In short: as §1

[8] = system: ryegrass, Italian (italian ryegrass, Lolium multiflorum); assay: as above; settings: 10 days
In short: as §1

soybean (Glycine max) [9] = assay: as above; settings: 10 days
In short: as §1

[10] = system: wheat (Triticum aestivum); assay: as above; settings: 10 days
In short: as §1

[11] = system: barnyardgrass (Echinochloa crus-galli); assay: Test A postemergence application, visual injury rating 0-100; settings: for Barnyardgrass plant response rating (0 to 100 scale): Postemergence
In short: as §1

[12] = system: blackgrass (Alopecurus myosuroides); assay: as above; settings: for Blackgrass plant response rating (0 to 100 scale): Postemergence
In short: as §1

corn (Zea mays) [13] = assay: as above; settings: for Corn plant response rating (0 to 100 scale): Postemergence
In short: as §1

[14] = system: galium (catchweed bedstraw, Galium aparine); assay: as above; settings: Postemergence
In short: as §1

[15] = system: green foxtail (Setaria viridis); assay: as above; settings: for Foxtail, Green plant response rating (0 to 100 scale): Postemergence
In short: as §1

[16] = system: horseweed (Erigeron canadensis); assay: as above; settings: for Horseweed plant response rating (0 to 100 scale): Postemergence
In short: as §1

kochia (Bassia scoparia) [17] = assay: as above; settings: for Kochia plant response rating (0 to 100 scale): Postemergence
In short: as §1

[18] = system: oat, wild (wild oat, Avena fatua); assay: as above; settings: for Oat, Wild plant response rating (0 to 100 scale): Postemergence
In short: as §1

[19] = system: palmer (palmer amaranth, palmer pigweed, Amaranthus palmeri); assay: as above; settings: for Amaranth, Palmer / Pigweed, Palmer plant response rating (0 to 100 scale): 0 is no effect, 100 is complete control
In short: as §1

[20] = system: ragweed (common ragweed, Ambrosia artemisiifolia); assay: as above; settings: for Ragweed plant response rating (0 to 100 scale): Postemergence
In short: as §1

[21] = system: ryegrass, Italian (italian ryegrass, Lolium multiflorum); assay: as above; settings: for Ryegrass, Italian plant response rating (0 to 100 scale): Postemergence
In short: as §1

soybean (Glycine max) [22] = assay: as above; settings: for Soybean plant response rating (0 to 100 scale): Postemergence
In short: as §1

[23] = system: wheat (Triticum aestivum); assay: as above; settings: for Wheat plant response rating (0 to 100 scale): Postemergence
In short: as §1

[24] = system: barnyardgrass (Echinochloa crusgalli); assay: Test B flooded paddy test, visual plant response rating 0-100; settings: 250 g ai/ha, Flood, applied to paddy water, evaluated after 13 days
In short: (§2)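 Plants were grown to the 2-leaf stage, then pots were flooded to 3 cm above the soil and compound was applied directly to the paddy water, with that depth kept throughout.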

[25] = system: ducksalad (Heteranthera limosa); assay: as above; settings: 250 g ai/ha, Flood, applied to paddy water, evaluated after 13 days
In short: as §2

rice (Oryza sativa) = assay: as above; settings: 250 g ai/ha, Flood, applied to paddy water, evaluated after 13 days
In short: as §2

[26] = system: sedge, umbrella (small-flower umbrella sedge, Cyperus difformis); assay: as above; settings: 250 g ai/ha, Flood, applied to paddy water, evaluated after 13 days
In short: as §2

[27] = system: ragweed (common ragweed, Ambrosia artemisiifolia); assay: Test A preemergence soil spray, visual injury rating 0-100; settings: 10 days
In short: as §1

[28] = 125 g ai/ha, 0 = no effect, 100 = complete control
[29] = 500 g ai/ha, 0 = no effect, 100 = complete control
[30] = 125 g ai/ha, 10 days, 0 is no effect, 100 is complete control
[31] = 500 g ai/ha, 10 days, 0 is no effect, 100 is complete control
[32] = 62 g ai/ha, 0 = no effect, 100 = complete control
[33] = 62 g ai/ha, postemergence, 10 days, 0 = no effect, 100 = complete control
[34] = 16 g ai/ha, greenhouse 10 days, 0 no effect, 100 complete control

SMILES: CCCOC(=O)C1C=CC(NC(=O)C2(C)CN(c3cc(F)cc(F)c3)C(=O)O2)C1 (stereo not drawn) [Compound 34]
- Barnyardgrass plant response rating (0 to 100 scale) [1, 28]: 100
- Barnyardgrass plant response rating (0 to 100 scale) [1, 29]: 100
- Blackgrass plant response rating (0 to 100 scale) [2, 28]: 90
- Blackgrass plant response rating (0 to 100 scale) [2, 29]: 100
- Corn plant response rating (0 to 100 scale) (corn (Zea mays) [3]; [28]): 90
- Corn plant response rating (0 to 100 scale) (corn (Zea mays) [3]; [29]): 100
- Foxtail, Green plant response rating (0 to 100 scale) [4, 28]: 100
- Foxtail, Green plant response rating (0 to 100 scale) [4, 29]: 100
- Kochia plant response rating (0 to 100 scale) (kochia (Bassia scoparia) [5]; 125 g ai/ha): 90
- Kochia plant response rating (0 to 100 scale) (kochia (Bassia scoparia) [5]; 500 g ai/ha): 90
- Oat, Wild plant response rating (0 to 100 scale) [6, 28]: 90
- Oat, Wild plant response rating (0 to 100 scale) [6, 29]: 90
- Amaranth, Palmer plant response rating (0 to 100 scale) [7, 28]: 90
- Amaranth, Palmer plant response rating (0 to 100 scale) [7, 29]: 100
- Ryegrass, Italian plant response rating (0 to 100 scale) [8, 28]: 100
- Ryegrass, Italian plant response rating (0 to 100 scale) [8, 29]: 100
- Soybean plant response rating (0 to 100 scale) (soybean (Glycine max) [9]; [28]): 70
- Soybean plant response rating (0 to 100 scale) (soybean (Glycine max) [9]; [29]): 80
- Wheat plant response rating (0 to 100 scale) [10, 28]: 90
- Wheat plant response rating (0 to 100 scale) [10, 29]: 100
- Barnyardgrass plant response rating (0 to 100 scale) [11, 30]: 100
- Barnyardgrass plant response rating (0 to 100 scale) [11, 31]: 100
- Blackgrass plant response rating (0 to 100 scale) [12, 30]: 90
- Blackgrass plant response rating (0 to 100 scale) [12, 31]: 100
- Corn plant response rating (0 to 100 scale) (corn (Zea mays) [13]; [30]): 100
- Corn plant response rating (0 to 100 scale) (corn (Zea mays) [13]; [31]): 100
- Galium plant response rating (0 to 100 scale) [14, 30]: 80
- Galium plant response rating (0 to 100 scale) [14, 31]: 80
- Foxtail, Green plant response rating (0 to 100 scale) [15, 30]: 90
- Foxtail, Green plant response rating (0 to 100 scale) [15, 31]: 90
- Horseweed plant response rating (0 to 100 scale) [16, 30]: 90
- Horseweed plant response rating (0 to 100 scale) [16, 31]: 90
- Kochia plant response rating (0 to 100 scale) (kochia (Bassia scoparia) [17]; [30]): 70
- Kochia plant response rating (0 to 100 scale) (kochia (Bassia scoparia) [17]; [31]): 70
- Oat, Wild plant response rating (0 to 100 scale) [18, 30]: 100
- Oat, Wild plant response rating (0 to 100 scale) [18, 31]: 100
- Amaranth, Palmer / Pigweed, Palmer plant response rating (0 to 100 scale) ([19]; Postemergence, 125 g ai/ha, 10 days): 80
- Amaranth, Palmer / Pigweed, Palmer plant response rating (0 to 100 scale) ([19]; Postemergence, 500 g ai/ha, 10 days): 100
- Ragweed plant response rating (0 to 100 scale) [20, 30]: 70
- Ragweed plant response rating (0 to 100 scale) [20, 31]: 80
- Ryegrass, Italian plant response rating (0 to 100 scale) [21, 30]: 80
- Ryegrass, Italian plant response rating (0 to 100 scale) [21, 31]: 90
- Soybean plant response rating (0 to 100 scale) (soybean (Glycine max) [22]; [30]): 70
- Soybean plant response rating (0 to 100 scale) (soybean (Glycine max) [22]; [31]): 80
- Wheat plant response rating (0 to 100 scale) [23, 30]: 70
- Wheat plant response rating (0 to 100 scale) [23, 31]: 80
- Plant response rating, Barnyardgrass (0 to 100 scale, 0 is no effect and 100 is complete control) [24]: 90
- Plant response rating, Ducksalad (0 to 100 scale, 0 is no effect and 100 is complete control) [25]: 75
- Plant response rating, Rice (0 to 100 scale, 0 is no effect and 100 is complete control) (rice (Oryza sativa)): 10
- Plant response rating, Sedge, Umbrella (0 to 100 scale, 0 is no effect and 100 is complete control) [26]: 75

SMILES: COC(=O)C1=CCC(NC(=O)C2(C)CN(c3cc(Cl)cc(Cl)c3)C(=O)O2)C1 (stereo not drawn) [Compound 148]
- Barnyardgrass plant response rating ([1]; 16 g ai/ha, 0 to 100 scale): 0
- Barnyardgrass plant response rating (0-100) [1, 32]: 0
- Blackgrass plant response rating ([2]; 16 g ai/ha, 0 to 100 scale): 0
- Blackgrass plant response rating (0-100) [2, 32]: 0
- Corn plant response rating (corn (Zea mays) [3]; 16 g ai/ha, 0 to 100 scale): 0
- Corn plant response rating (0-100) (corn (Zea mays) [3]; [32]): 0
- Foxtail, Green plant response rating ([4]; 16 g ai/ha, 0 to 100 scale): 0
- Foxtail, Green plant response rating (0-100) [4, 32]: 0
- Oat, Wild plant response rating ([6]; 16 g ai/ha, 0 to 100 scale): 0
- Oat, Wild plant response rating (0-100) [6, 32]: 0
- Pigweed, Palmer plant response rating ([7]; 16 g ai/ha, 0 to 100 scale): 0
- Pigweed, Palmer plant response rating (0-100) [7, 32]: 0
- Ragweed plant response rating ([27]; 16 g ai/ha, 0 to 100 scale): 0
- Ragweed plant response rating (0-100) [27, 32]: 0
- Ryegrass, Italian plant response rating ([8]; 16 g ai/ha, 0 to 100 scale): 0
- Ryegrass, Italian plant response rating (0-100) [8, 32]: 0
- Soybean plant response rating (soybean (Glycine max) [9]; 16 g ai/ha, 0 to 100 scale): 0
- Soybean plant response rating (0-100) (soybean (Glycine max) [9]; [32]): 20
- Wheat plant response rating ([10]; 16 g ai/ha, 0 to 100 scale): 0
- Wheat plant response rating (0-100) [10, 32]: 0
- Barnyardgrass plant response rating (0-100) [11, 33]: 90
- Barnyardgrass plant response rating (0 to 100 scale) [11, 34]: 0
- Blackgrass plant response rating (0-100) [12, 33]: 70
- Blackgrass plant response rating (0 to 100 scale) [12, 34]: 0
- Corn plant response rating (0-100) (corn (Zea mays) [13]; [33]): 70
- Corn plant response rating (0 to 100 scale) (corn (Zea mays) [13]; [34]): 0
- Galium plant response rating (0 to 100 scale) [14, 34]: 40
- Foxtail, Green plant response rating (0-100) [15, 33]: 30
- Foxtail, Green plant response rating (0 to 100 scale) [15, 34]: 0
- Horseweed plant response rating (0-100) [16, 33]: 0
- Horseweed plant response rating (0 to 100 scale) [16, 34]: 0
- Kochia plant response rating (0-100) (kochia (Bassia scoparia) [17]; [33]): 80
- Kochia plant response rating (0 to 100 scale) (kochia (Bassia scoparia) [17]; [34]): 0
- Oat, Wild plant response rating (0-100) [18, 33]: 10
- Oat, Wild plant response rating (0 to 100 scale) [18, 34]: 0
- Pigweed, Palmer plant response rating (0-100) [19, 33]: 80
- Pigweed, Palmer plant response rating (0 to 100 scale) ([19]; Postemergence, 16 g ai/ha, greenhouse 10 days, 0 no effect, 100 complete control): 10
- Ragweed plant response rating (0-100) [20, 33]: 0
- Ragweed plant response rating (0 to 100 scale) [20, 34]: 0
- Ryegrass, Italian plant response rating (0-100) [21, 33]: 50
- Ryegrass, Italian plant response rating (0 to 100 scale) [21, 34]: 0
- Soybean plant response rating (0-100) (soybean (Glycine max) [22]; [33]): 50
- Soybean plant response rating (0 to 100 scale) (soybean (Glycine max) [22]; [34]): 0
- Wheat plant response rating (0-100) [23, 33]: 30
- Wheat plant response rating (0 to 100 scale) [23, 34]: 10
- Plant response rating, Barnyardgrass (0 to 100 scale, 0 is no effect and 100 is complete control) [24]: 0
- Plant response rating, Ducksalad (0 to 100 scale, 0 is no effect and 100 is complete control) [25]: 0
- Plant response rating, Rice (0 to 100 scale, 0 is no effect and 100 is complete control) (rice (Oryza sativa)): 0
- Plant response rating, Sedge, Umbrella (0 to 100 scale, 0 is no effect and 100 is complete control) [26]: 0
